Data from PubChem BioAssay AID270 (DTP/NCI, 2004).
Values joined by “and” are separate entries in the source; they are usually repeats but may differ in a detail not shown here. Identical values can stand only once. Results filed as inconclusive are left out.

System: BDF1 mice, s.c. Lewis lung carcinoma, T/C %
Test: NCI In Vivo Anticancer Drug Screen. Data for tumor model Lewis Lung Carcinoma (subcutaneous) in B6D2F1 (BDF1) mice
Summary of the method: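 The value reflects a ratio in which the treated cohort's survival time or tumour size is compared against mice receiving only vehicle.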

[1] = endpoint: median survival time, dose: 25.0 mg/kg/injection, schedule: Q01DX009 (ip), vehicle: saline with Tween-80, higher = longer survival

For `O=C(O)CCC(=O)O`, the T/C (endpoint: median survival time, dose: 0.62 mg/kg/injection, schedule: Q01DX009 (ip), vehicle: water, higher = longer survival) was 110 % of control, the T/C (endpoint: median survival time, dose: 1.25 mg/kg/injection, schedule: Q01DX009 (ip), vehicle: water, higher = longer survival) was 103 % of control and the T/C (endpoint: median survival time, dose: 2.5 mg/kg/injection, schedule: Q01DX009 (ip), vehicle: water, higher = longer survival) was 93 % of control. The T/C (endpoint: median survival time, dose: 5.0 mg/kg/injection, schedule: Q01DX009 (ip), vehicle: water, higher = longer survival) was 93 % of control and 108 % of control, the T/C (endpoint: median survival time, dose: 10.0 mg/kg/injection, schedule: Q01DX009 (ip), vehicle: water, higher = longer survival) was 102 % of control and 107 % of control and the T/C (endpoint: median survival time, dose: 20.0 mg/kg/injection, schedule: Q01DX009 (ip), vehicle: water, higher = longer survival) was 106 % of control and 115 % of control and 97 % of control. For the same compound, the T/C (endpoint: median survival time, dose: 40.0 mg/kg/injection, schedule: Q01DX009 (ip), vehicle: water, higher = longer survival) was 96 % of control and 103 % of control and 108 % of control and the T/C (endpoint: median survival time, dose: 80.0 mg/kg/injection, schedule: Q01DX009 (ip), vehicle: water, higher = longer survival) was 104 % of control.
In the case of `N#Cc1ncc(C(Cl)Cl)nc1Cl`, the T/C [1] is reported as 113 % of control and the T/C (endpoint: median survival time, dose: 50.0 mg/kg/injection, schedule: Q01DX009 (ip), vehicle: saline with Tween-80, higher = longer survival) is reported as 98 % of control.
`Cc1cnc(/C=N\NC(N)=S)c2cccc(N)c12` was tested, and the T/C (endpoint: median survival time, dose: 6.25 mg/kg/injection, schedule: Q01DX009 (ip), vehicle: Klucel (hydroxypropylcellulose) (HPC), higher = longer survival) was 112 % of control, the T/C (endpoint: median survival time, dose: 6.25 mg/kg/injection, schedule: Q01DX009 (ip), vehicle: saline with Tween-80, higher = longer survival) was 106 % of control and the T/C (endpoint: median survival time, dose: 12.5 mg/kg/injection, schedule: Q01DX009 (ip), vehicle: Klucel (hydroxypropylcellulose) (HPC), higher = longer survival) was 90 % of control. The T/C (endpoint: median survival time, dose: 12.5 mg/kg/injection, schedule: Q01DX009 (ip), vehicle: saline with Tween-80, higher = longer survival) was 110 % of control, the T/C (endpoint: median survival time, dose: 25.0 mg/kg/injection, schedule: Q01DX009 (ip), vehicle: Klucel (hydroxypropylcellulose) (HPC), higher = longer survival) was 86 % of control and the T/C [1] was 117 % of control. The T/C (endpoint: median survival time, dose: 50.0 mg/kg/injection, schedule: Q01DX009 (ip), vehicle: Klucel (hydroxypropylcellulose) (HPC), higher = longer survival) was 95 % of control.
With `CCC[CH2][Sn]1([CH2]CCC)[O]OC(c2ccc(C)cc2)[O]1` (stereo not given) the T/C (endpoint: median survival time, dose: 0.19 mg/kg/injection, schedule: Q01DX009 (ip), vehicle: saline with Tween-80, higher = longer survival) was 98 % of control, the T/C (endpoint: median survival time, dose: 0.75 mg/kg/injection, schedule: Q01DX009 (ip), vehicle: saline with Tween-80, higher = longer survival) was 107 % of control and the T/C (endpoint: median survival time, dose: 1.5 mg/kg/injection, schedule: Q01DX009 (ip), vehicle: saline with Tween-80, higher = longer survival) was 98 % of control. For the same compound, the T/C (endpoint: median survival time, dose: 3.0 mg/kg/injection, schedule: Q01DX009 (ip), vehicle: saline with Tween-80, higher = longer survival) was 119 % of control and the T/C (endpoint: median survival time, dose: 3.13 mg/kg/injection, schedule: Q01DX009 (ip), vehicle: saline with Tween-80, higher = longer survival) was 121 % of control.
For `O=[N+]([O-])c1ccc(CSc2ncnc3c2ncn3C2OC(CO)C(O)C2O)cc1` (stereo not given), the T/C (endpoint: median survival time, dose: 0.3 mg/kg/injection, schedule: Q01DX010 (ip), vehicle: saline with Tween-80, higher = longer survival) was 93 % of control, the T/C (endpoint: median survival time, dose: 3.0 mg/kg/injection, schedule: Q01DX010 (ip), vehicle: saline with Tween-80, higher = longer survival) was 97 % of control and the T/C (endpoint: median survival time, dose: 30.0 mg/kg/injection, schedule: Q01DX010 (ip), vehicle: saline with Tween-80, higher = longer survival) was 106 % of control.
For `CCOC(=O)C(C)(C)Br`, the T/C (endpoint: mean tumor weight, dose: 75.0 mg/kg/injection, schedule: Q01DX011 (ip), vehicle: other, higher = larger tumour) was 90 % of control, the T/C (endpoint: mean tumor weight, dose: 150.0 mg/kg/injection, schedule: Q01DX011 (ip), vehicle: other, higher = larger tumour) was 114 % of control and the T/C (endpoint: mean tumor weight, dose: 300.0 mg/kg/injection, schedule: Q01DX011 (ip), vehicle: other, higher = larger tumour) was 98 % of control. For the same compound, the T/C (endpoint: mean tumor weight, dose: 500.0 mg/kg/injection, schedule: Q01DX011 (ip), vehicle: other, higher = larger tumour) was 68 % of control, the T/C (endpoint: mean tumor weight, dose: 600.0 mg/kg/injection, schedule: Q01DX011 (ip), vehicle: other, higher = larger tumour) was 102 % of control and the T/C (endpoint: mean tumor weight, dose: 750.0 mg/kg/injection, schedule: Q01DX011 (ip), vehicle: other, higher = larger tumour) was 37 % of control.
With `CC(=O)C(C)=O` the T/C (endpoint: mean tumor weight, dose: 50.0 mg/kg/injection, schedule: Q01DX011 (ip), vehicle: saline, higher = larger tumour) was 116 % of control, the T/C (endpoint: mean tumor weight, dose: 100.0 mg/kg/injection, schedule: Q01DX011 (ip), vehicle: saline, higher = larger tumour) was 76 % of control and the T/C (endpoint: mean tumor weight, dose: 200.0 mg/kg/injection, schedule: Q01DX011 (ip), vehicle: saline, higher = larger tumour) was 71 % of control. The T/C (endpoint: mean tumor weight, dose: 400.0 mg/kg/injection, schedule: Q01DX011 (ip), vehicle: saline, higher = larger tumour) was 87 % of control.
